Tests used:
Assay in all cases: Eurofins kinase profiling
Assay type in all cases: biochemical
CHK2(h) = target: T1, CHK2(h) (Homo sapiens, UniProt O96017); settings: read-out: residual kinase activity CHK2(h)
T1 construct: purchased Eurofins KinaseProfiler
Method in brief: (§1)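 Single-point screen at 1 µM compound; radiometric read-out of kinase activity using radiolabeled phosphate, per standard KinaseProfiler protocol.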

IR(h), activated = target: T2, IR(h), activated (Homo sapiens, UniProt P06213); settings: 1 µM
T2 construct: purchased Eurofins KinaseProfiler
Method in brief: as §1

Snk(h) = target: T3, Snk(h) (Homo sapiens, UniProt Q9NYY3); settings: read-out: residual kinase activity Snk(h)
T3 construct: purchased Eurofins KinaseProfiler
Method in brief: as §1

PKCη(h) = target: T4, PKCη(h) (Homo sapiens, UniProt P24723); settings: read-out: residual kinase activity PKCη(h)
T4 construct: purchased Eurofins KinaseProfiler
T4 sequence (P24723 whole entry): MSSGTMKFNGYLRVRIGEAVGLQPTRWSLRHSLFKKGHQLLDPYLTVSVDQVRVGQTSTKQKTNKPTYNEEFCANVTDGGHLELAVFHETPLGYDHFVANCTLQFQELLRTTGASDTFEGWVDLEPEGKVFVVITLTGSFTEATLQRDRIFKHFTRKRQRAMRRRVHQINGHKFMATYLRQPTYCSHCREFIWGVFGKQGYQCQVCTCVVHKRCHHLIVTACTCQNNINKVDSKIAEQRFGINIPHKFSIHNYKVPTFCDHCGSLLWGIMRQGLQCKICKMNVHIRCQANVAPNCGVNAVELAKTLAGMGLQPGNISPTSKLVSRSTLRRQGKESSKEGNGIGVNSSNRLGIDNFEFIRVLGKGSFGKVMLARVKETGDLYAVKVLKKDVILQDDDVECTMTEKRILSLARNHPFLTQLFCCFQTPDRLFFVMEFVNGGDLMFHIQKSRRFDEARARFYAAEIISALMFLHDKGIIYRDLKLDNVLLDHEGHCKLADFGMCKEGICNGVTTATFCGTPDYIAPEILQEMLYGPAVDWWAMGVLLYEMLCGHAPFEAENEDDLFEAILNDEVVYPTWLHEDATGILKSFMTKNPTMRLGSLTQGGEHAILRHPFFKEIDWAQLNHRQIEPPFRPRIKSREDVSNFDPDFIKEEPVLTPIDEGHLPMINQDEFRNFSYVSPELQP
Method in brief: as §1

NIM1(h) = target: T5, NIM1(h) (Homo sapiens, UniProt Q8IY84); settings: read-out: residual kinase activity NIM1(h)
T5 construct: purchased Eurofins KinaseProfiler
T5 sequence (Q8IY84 whole entry): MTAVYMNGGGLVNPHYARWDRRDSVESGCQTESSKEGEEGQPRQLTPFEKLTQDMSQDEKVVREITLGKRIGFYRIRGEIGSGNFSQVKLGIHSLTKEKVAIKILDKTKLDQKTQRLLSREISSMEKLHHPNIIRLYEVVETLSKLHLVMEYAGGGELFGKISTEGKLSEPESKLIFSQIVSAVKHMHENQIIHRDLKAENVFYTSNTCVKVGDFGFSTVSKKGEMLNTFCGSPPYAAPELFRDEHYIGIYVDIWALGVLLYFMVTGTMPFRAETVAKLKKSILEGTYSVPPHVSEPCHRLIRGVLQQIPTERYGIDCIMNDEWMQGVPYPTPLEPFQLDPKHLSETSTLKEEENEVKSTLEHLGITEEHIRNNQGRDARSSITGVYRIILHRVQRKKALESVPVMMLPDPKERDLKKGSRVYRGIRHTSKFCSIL
Method in brief: as §1

PKCα(h) = target: T6, PKCα(h) (Homo sapiens, UniProt P17252); settings: read-out: residual kinase activity PKCα(h)
T6 construct: purchased Eurofins KinaseProfiler
Method in brief: as §1

CSK(h) = target: T7, CSK(h) (Homo sapiens, UniProt P41240); settings: read-out: residual kinase activity CSK(h)
T7 construct: purchased Eurofins KinaseProfiler
T7 sequence (P41240 whole entry): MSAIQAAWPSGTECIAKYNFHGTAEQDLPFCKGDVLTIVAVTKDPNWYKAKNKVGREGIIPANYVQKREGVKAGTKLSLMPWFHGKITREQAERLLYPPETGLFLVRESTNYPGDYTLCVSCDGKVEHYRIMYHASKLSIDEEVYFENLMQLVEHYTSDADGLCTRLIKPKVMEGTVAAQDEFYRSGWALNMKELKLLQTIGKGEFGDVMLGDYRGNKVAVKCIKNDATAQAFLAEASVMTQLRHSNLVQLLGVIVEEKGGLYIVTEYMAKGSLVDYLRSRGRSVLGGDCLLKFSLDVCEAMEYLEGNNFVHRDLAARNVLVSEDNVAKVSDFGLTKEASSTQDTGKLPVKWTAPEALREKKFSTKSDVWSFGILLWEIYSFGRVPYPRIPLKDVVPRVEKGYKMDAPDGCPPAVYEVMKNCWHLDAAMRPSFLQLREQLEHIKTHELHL
Method in brief: as §1

DNA-PK(h) = target: T8, DNA-PK(h) (Homo sapiens, UniProt P78527); settings: read-out: residual kinase activity DNA-PK(h)
T8 construct: purchased Eurofins KinaseProfiler
Method in brief: as §1

BRK(h) = target: T9, BRK(h) (Homo sapiens, UniProt Q13882); settings: read-out: residual kinase activity BRK(h)
T9 construct: purchased Eurofins KinaseProfiler
Method in brief: as §1

ATM(h) = target: T10, ATM(h) (Homo sapiens, UniProt Q13315); settings: read-out: residual kinase activity ATM(h)
T10 construct: purchased Eurofins KinaseProfiler
Method in brief: as §1

EphA7(h) = target: T11, EphA7(h) (Homo sapiens, UniProt Q15375); settings: read-out: residual kinase activity EphA7(h)
T11 construct: purchased Eurofins KinaseProfiler
Method in brief: as §1

PAK1(h) = target: T12, PAK1(h) (Homo sapiens, UniProt Q13153); settings: read-out: residual kinase activity PAK1(h)
T12 construct: purchased Eurofins KinaseProfiler
Method in brief: as §1

MAPK2(h) = target: T13, MAPK2(h) (Homo sapiens, UniProt P28482); settings: read-out: residual kinase activity MAPK2(h)
T13 construct: purchased Eurofins KinaseProfiler
T13 sequence (P28482 whole entry): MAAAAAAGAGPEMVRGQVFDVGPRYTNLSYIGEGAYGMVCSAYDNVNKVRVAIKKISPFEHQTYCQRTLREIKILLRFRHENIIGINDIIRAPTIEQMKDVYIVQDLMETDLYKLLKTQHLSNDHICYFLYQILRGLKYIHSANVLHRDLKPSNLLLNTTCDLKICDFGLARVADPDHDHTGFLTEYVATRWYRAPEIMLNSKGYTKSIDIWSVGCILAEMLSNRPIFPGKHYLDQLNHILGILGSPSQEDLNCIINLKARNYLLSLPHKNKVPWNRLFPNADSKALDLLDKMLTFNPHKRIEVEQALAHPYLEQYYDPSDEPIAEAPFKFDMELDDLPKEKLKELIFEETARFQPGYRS
Method in brief: as §1

FGFR1(h) = target: T14, FGFR1(h) (Homo sapiens, UniProt P11362); settings: read-out: residual kinase activity FGFR1(h)
T14 construct: purchased Eurofins KinaseProfiler
T14 sequence (P11362 22-822): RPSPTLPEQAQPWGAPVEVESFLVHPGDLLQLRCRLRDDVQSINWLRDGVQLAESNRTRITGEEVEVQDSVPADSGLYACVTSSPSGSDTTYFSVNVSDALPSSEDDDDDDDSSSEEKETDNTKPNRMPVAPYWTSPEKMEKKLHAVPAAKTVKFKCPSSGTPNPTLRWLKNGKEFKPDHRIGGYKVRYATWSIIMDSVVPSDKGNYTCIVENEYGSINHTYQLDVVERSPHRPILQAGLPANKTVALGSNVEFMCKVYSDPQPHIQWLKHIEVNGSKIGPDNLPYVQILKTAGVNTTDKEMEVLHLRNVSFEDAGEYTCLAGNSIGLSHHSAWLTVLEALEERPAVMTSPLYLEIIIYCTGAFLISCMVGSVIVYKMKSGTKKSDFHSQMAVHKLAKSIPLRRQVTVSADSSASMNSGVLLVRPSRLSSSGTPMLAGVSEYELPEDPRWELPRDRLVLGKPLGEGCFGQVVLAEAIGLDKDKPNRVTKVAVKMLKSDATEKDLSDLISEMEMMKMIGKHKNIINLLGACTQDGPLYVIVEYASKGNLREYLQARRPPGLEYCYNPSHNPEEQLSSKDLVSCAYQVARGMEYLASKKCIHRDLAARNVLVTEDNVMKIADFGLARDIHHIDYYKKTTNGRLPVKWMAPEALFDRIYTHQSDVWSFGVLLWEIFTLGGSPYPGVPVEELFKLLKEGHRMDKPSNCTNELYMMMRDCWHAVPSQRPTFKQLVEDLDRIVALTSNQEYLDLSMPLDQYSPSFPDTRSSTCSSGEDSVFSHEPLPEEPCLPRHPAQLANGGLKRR
Method in brief: as §1

DYRK2(h) = target: T15, DYRK2(h) (Homo sapiens, UniProt Q92630); settings: read-out: residual kinase activity DYRK2(h)
T15 construct: purchased Eurofins KinaseProfiler
T15 sequence (Q92630 1-601): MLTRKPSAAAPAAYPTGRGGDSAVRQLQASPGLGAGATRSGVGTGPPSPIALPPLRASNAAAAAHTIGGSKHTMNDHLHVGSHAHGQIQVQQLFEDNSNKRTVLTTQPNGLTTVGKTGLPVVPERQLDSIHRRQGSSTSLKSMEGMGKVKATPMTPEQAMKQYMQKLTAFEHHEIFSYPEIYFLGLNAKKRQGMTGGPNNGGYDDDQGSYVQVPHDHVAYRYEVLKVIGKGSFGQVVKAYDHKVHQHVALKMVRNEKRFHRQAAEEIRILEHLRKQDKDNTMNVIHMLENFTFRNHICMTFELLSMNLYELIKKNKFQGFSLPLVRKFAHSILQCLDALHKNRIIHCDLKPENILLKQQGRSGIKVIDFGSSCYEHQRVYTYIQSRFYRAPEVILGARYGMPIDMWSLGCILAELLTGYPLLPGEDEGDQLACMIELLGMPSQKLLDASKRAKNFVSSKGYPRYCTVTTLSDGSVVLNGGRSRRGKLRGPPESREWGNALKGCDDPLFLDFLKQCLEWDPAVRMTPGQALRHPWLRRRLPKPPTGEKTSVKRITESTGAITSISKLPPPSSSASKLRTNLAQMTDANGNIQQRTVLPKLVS
Method in brief: as §1

MELK(h) = target: T16, MELK(h) (Homo sapiens, UniProt Q14680); settings: read-out: residual kinase activity MELK(h)
T16 construct: purchased Eurofins KinaseProfiler
Method in brief: as §1

Wee1(h) = target: T17, Wee1(h) (Homo sapiens, UniProt P30291); settings: read-out: residual kinase activity Wee1(h)
T17 construct: purchased Eurofins KinaseProfiler
Method in brief: as §1

Yes(h) = target: T18, Yes(h) (Homo sapiens, UniProt P07947); settings: read-out: residual kinase activity Yes(h)
T18 construct: purchased Eurofins KinaseProfiler
Method in brief: as §1

ALK(h) = target: T19, ALK(h) (Homo sapiens, UniProt Q9UM73); settings: for remaining activity at 1 µM: read-out: residual kinase activity ALK(h)
T19 construct: purchased Eurofins KinaseProfiler
Method in brief: as §1

Ret(h) = target: T20, Ret(h) (Homo sapiens, UniProt P07949); settings: read-out: residual kinase activity Ret(h)
T20 construct: purchased Eurofins KinaseProfiler
T20 sequence (P07949 29-1114): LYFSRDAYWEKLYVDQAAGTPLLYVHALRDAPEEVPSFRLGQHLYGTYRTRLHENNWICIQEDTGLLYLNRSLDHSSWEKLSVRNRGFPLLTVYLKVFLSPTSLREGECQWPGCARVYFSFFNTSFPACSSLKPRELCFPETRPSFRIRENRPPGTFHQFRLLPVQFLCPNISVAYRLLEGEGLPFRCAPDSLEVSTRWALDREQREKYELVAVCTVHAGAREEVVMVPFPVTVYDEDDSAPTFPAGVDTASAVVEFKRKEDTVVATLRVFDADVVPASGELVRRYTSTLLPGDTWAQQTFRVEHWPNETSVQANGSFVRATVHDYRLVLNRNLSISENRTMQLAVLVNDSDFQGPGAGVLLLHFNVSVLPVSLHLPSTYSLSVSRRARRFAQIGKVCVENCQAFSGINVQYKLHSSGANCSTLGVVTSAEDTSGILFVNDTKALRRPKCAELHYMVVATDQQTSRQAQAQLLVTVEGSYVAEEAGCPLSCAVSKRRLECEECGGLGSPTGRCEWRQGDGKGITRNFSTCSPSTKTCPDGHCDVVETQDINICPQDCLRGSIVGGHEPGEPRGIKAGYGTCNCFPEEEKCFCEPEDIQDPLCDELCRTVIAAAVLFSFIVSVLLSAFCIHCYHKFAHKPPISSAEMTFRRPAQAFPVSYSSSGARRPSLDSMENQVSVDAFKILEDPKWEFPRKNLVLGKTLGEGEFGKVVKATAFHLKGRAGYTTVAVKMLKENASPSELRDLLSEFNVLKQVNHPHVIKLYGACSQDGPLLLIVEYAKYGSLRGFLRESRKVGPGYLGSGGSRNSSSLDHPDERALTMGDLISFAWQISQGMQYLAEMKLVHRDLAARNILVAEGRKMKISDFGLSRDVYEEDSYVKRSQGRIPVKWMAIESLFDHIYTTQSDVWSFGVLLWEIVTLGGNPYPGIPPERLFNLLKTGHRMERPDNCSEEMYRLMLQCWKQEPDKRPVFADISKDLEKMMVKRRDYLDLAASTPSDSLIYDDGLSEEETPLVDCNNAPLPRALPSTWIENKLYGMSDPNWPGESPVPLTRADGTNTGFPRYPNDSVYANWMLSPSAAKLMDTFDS
Method in brief: as §1

T1 sequence (O96017 whole entry): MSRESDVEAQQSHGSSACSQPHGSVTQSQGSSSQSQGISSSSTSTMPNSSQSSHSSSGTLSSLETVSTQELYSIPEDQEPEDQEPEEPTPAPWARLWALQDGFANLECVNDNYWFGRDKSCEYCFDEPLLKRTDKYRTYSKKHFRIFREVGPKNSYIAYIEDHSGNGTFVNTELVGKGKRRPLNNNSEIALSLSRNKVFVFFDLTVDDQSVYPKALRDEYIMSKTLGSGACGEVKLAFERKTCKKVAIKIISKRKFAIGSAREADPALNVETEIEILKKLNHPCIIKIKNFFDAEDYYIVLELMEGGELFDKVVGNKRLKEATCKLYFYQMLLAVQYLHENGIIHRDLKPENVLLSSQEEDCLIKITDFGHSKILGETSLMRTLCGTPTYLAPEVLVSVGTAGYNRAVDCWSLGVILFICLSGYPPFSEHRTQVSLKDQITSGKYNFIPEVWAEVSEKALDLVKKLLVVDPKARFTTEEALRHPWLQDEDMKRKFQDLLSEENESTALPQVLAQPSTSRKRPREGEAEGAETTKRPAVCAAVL

Row | SMILES | remaining activity at 1 µM (CHK2(h)) [%] | residual kinase activity IR(h), activated (IR(h), activated) | remaining activity at 1 µM (Snk(h)) [%] | remaining activity at 1 µM (PKCη(h)) [%] | remaining activity at 1 µM (NIM1(h)) [%] | remaining activity at 1 µM (PKCα(h)) [%] | remaining activity at 1 µM (CSK(h)) [%] | remaining activity at 1 µM (DNA-PK(h)) [%] | remaining activity at 1 µM (BRK(h)) [%] | remaining activity at 1 µM (ATM(h)) [%] | remaining activity at 1 µM (EphA7(h)) [%] | remaining activity at 1 µM (PAK1(h)) [%] | remaining activity at 1 µM (MAPK2(h)) [%] | remaining activity at 1 µM (FGFR1(h)) [%] | remaining activity at 1 µM (DYRK2(h)) [%] | remaining activity at 1 µM (MELK(h)) [%] | remaining activity at 1 µM (Wee1(h)) [%] | remaining activity at 1 µM (Yes(h)) [%] | remaining activity at 1 µM (ALK(h)) [%] | remaining activity at 1 µM (Ret(h)) [%] | also measured
1 | CONC(=O)c1ccccc1Nc1cc(Nc2cc(C)nn2C(C)C)ncc1Cl [GSK2256098] | 59 | 76 | 113 | 97 | 85 | 95 | 92 | 98 | 67 | 94 | 99 | 91 | 94 | 109 | 52 | 91 | 88 | 99 | 73 | 117 | 
2 | CNC(=O)c1cccc(C)c1Nc1nc(Nc2ccc(N3CCN(C4C5CC6CC4CC(O)(C6)C5)CC3)cc2OC)ncc1C(F)(F)F (stereo not shown) [SJP1602, 2-((2-((4-(4-((2s,5r)-5-hydroxyadamantan-2-yl)piperazin-1-yl)-2-methoxyphenyl)amino)-5-(trifluoromethyl)pyrimidin-4-yl)amino)-N,3-dimethylbenzamide] | 51 | 61 | 105 | 95 | 95 | 100 | 83 | 98 | 109 | 98 | 103 | 119 | 95 | 111 | 97 | 74 | 101 | 84 | 28 | 111 | inhibition at 1 µM (ALK(h)): 72%
3 | CNC(=O)c1ccc(Nc2ncc(C(F)(F)F)c(NCc3nccnc3N(C)S(C)(=O)=O)n2)cc1 [VS-6063, Defactinib] | 71 | 30 | 64 | 104 | 78 | 92 | 88 | 85 | 91 | 63 | 41 | 79 | 87 | 43 | 80 | 9 | 72 | 56 | 96 | 39 | 

From publication PMC10528299, “Targeting FAK/PYK2 with SJP1602 for Anti-Tumor Activity in Triple-Negative Breast Cancer” (Current Issues in Molecular Biology, 2023)
